Reference: patent publication US7488576B2, “Methods for diagnosis and treatment of psychiatric disorders” (The Regents of the University of California, priority 2000, dated 2009)
Several values for one entry are separate records, joined by “and”; a condition that tells them apart may be missing. Identical values can stand only once.

Columns and labels:
[1] = tested on: DBP; experiment: Gene expression in rat brain after stimulant treatment (Affymetrix U34A GeneChip), prefrontal cortex; conditions: 24 h, read-out: Fold Induction of DBP
Protocol: (§1) In experiments conducted during the development of the present invention, the rat animal model was used. This model is commonly accepted by those in the art for experiments involving psychiatric disorders. In some experiments, rats were treated with a single dose of methamphetamine (4 mg/kg) and sacrificed 24 hours later. This timepoint was chosen as that most likely to detect changes of relevance to mania and psychosis. It was hypothesized that at 24 hours, most short term gene induction relevant to acute intoxication and behavioral activation would have subsided. […] As mania and psychosis are typically chronic processes in man, more persistent gene changes are more likely to be central to pathophysiological mechanisms. Gene expression was examined in the prefrontal cortex and amygdala, using the Afymetrix U34A GeneChip, which interrogates approximately 7,000 known genes and 1,000 ESTs (expressed sequence tags) using an oligonucleotide nicroarray (See, Lipshutz et al., Nat. Genet. 21:20 [1999]). These brain regions were chosen based on the extensive literature that highlights their central role in cognition and emotion (See e.g., Heimer and Alheid, Adv. Exp. Med. Biol. 1:295 [1991]).
(§2) A two-fold increase or decrease in expression was chosen as a conventional empirical cut-off. Thus, at least a two-fold change in each of two independent animal experiments was used to select those genes with the most robust and reproducible change in expression. In each experiment, pooled tissues from three methamphetamine-treated and three control rats were used. In these analyses, standard default settings of the Affymetrix GeneChip Expression Algorithm were used. A gene had to be called “Present” and “Changed,” in at least one out of two experiments and had to have an Average Difference Change greater than 50, as well as a fold change greater than 2 in two out of two experiments. […] The genes that were induced more than two-fold in both experiments were also identified by their GenBank accession numbers, as indicated in Tables 1 and 2.
(§3) After 24 hours, the rats were humanely sacrificed and the brains were harvested.
(§4) Tissues from each brain region from the three animals in each experimental group were pooled (i.e., test and control animals). Total RNA was isolated from the tissue using standard protocols known in the art. Briefly, STAT-60 extraction buffer, and phenol/chloroform extraction was used. cDNA was synthesized and used as templates to produce biotin-labelled antisense cRNAs using an in vitro transcription reaction. After fragmentation, the CRNA hybridization cocktail was prepared, cleaned, and applied to the Affymetrix GeneChip oligonucleotide array.
(§5) A two-fold increase or decrease in expression was chosen as a conventional empirical cut-off. […]

[2] = tested on: FDFT1; experiment: as above; conditions: 24 h, read-out: Fold Induction of FDFT1
Protocol: as §1, §2, §3, §4, §5

[3] = tested on: GRK3; experiment: as above; conditions: 24 h, read-out: Fold Induction of GRK3
Protocol: as §1, §2, §3, §4, §5

[4] = tested on: MALS-1; experiment: as above; conditions: 24 h, read-out: Fold Induction of MALS-1
Protocol: as §1, §2, §3, §4, §5

[5] = tested on: ADORA3; experiment: Gene expression in rat brain after stimulant treatment (Affymetrix U34A GeneChip), amygdala; conditions: 24 h, read-out: Fold Induction of ADORA3
Protocol: as §1, §2, §3, §4
(§6) A two-fold increase or decrease in expression was chosen as a conventional empirical cut-off. Thus, at least a two-fold change in each of two independent animal experiments was used to select those genes with the most robust and reproducible change in expression. In these analyses, standard default settings of the Affymetrix GeneChip Expression Algorithm were used.

[6] = tested on: FCGRT; experiment: as above; conditions: 24 h, read-out: Fold Induction of FCGRT
Protocol: as §1, §2, §3, §4, §6

[7] = tested on: FEZ2; experiment: as above; conditions: 24 h, read-out: Fold Induction of FEZ2
Protocol: as §1, §2, §3, §4, §6

[8] = tested on: HSPB1; experiment: as above; conditions: 24 h, read-out: Fold Induction of HSPB1
Protocol: as §1, §2, §3, §4, §6

[9] = tested on: IGF1; experiment: as above; conditions: 24 h, read-out: Fold Induction of IGF1
Protocol: as §1, §2, §3, §4, §6

[10] = tested on: NDUFS8; experiment: as above; conditions: 24 h, read-out: Fold Induction of NDUFS8
Protocol: as §1, §2, §3, §4, §6

[11] = tested on: NTRK3; experiment: as above; conditions: 24 h, read-out: Fold Induction of NTRK3
Protocol: as §1, §2, §3, §4, §6

[12] = tested on: POLR2F; experiment: as above; conditions: 24 h, read-out: Fold Induction of POLR2F
Protocol: as §1, §2, §3, §4, §6

[13] = tested on: SULT1A1; experiment: as above; conditions: 24 h, read-out: Fold Induction of SULT1A1
Protocol: as §1, §2, §3, §4, §6

[14] = tested on: FGFR1; experiment: Gene expression in rat brain after stimulant treatment (Affymetrix U34A GeneChip); format: in vivo; conditions: 24 hours after single dose 4 mg/kg
Protocol: as §1
(§7) A two-fold increase or decrease in expression was chosen as a conventional empirical cut-off. Thus, at least a two-fold change in each of two independent animal experiments was used to select those genes with the most robust and reproducible change in expression. In each experiment, pooled tissues from three methamphetamine-treated and three control rats were used. In these analyses, standard default settings of the Affymetrix GeneChip Expression Algorithm were used. A gene had to be called “Present” and “Changed,” in at least one out of two experiments and had to have an Average Difference Change greater than 50, as well as a fold change greater than 2 in two out of two experiments. […] The genes that were induced more than two-fold in both experiments were also identified by their GenBank accession numbers, as indicated in Tables 1 and 2. […]

[15] = tested on: GRK2; experiment: as above; format: in vivo; conditions: 24 hours after single dose 4 mg/kg, one value per each of two experiments
Protocol: as §1, §7

CN[C@@H](C)Cc1ccccc1 [methamphetamine]
fold induction at 4 mg/kg [1]: 7 | fold induction at 4 mg/kg [2]: 2.9 | fold induction at 4 mg/kg [3]: 14.2 | fold induction at 4 mg/kg [4]: 2.9 | fold induction at 4 mg/kg [5]: 2.7 | fold induction at 4 mg/kg [6]: 3.2 | fold induction at 4 mg/kg [7]: 2.3 | fold induction at 4 mg/kg [8]: 2.8 | fold induction at 4 mg/kg [9]: 3 | fold induction at 4 mg/kg [10]: 20.8 | fold induction at 4 mg/kg [11]: 2.7 | fold induction at 4 mg/kg [12]: 3.9 | fold induction at 4 mg/kg [13]: 4.3 | average fold change of FGFR1 expression ([14]; average of two experiments): 4.1 fold | fold increase of FGFR1 expression in one of the two experiments ([14]; one of the two experiments): 1.8 fold | fold changes in GRK2 expression [15]: 1.1 fold and 1.0 fold
